Article PMC12420824, “Discovery of a selective alpha-kinase 1 inhibitor for the rare genetic disease ROSAH syndrome” (Nature Communications, 2025)
Where “and” joins values, the source holds several entries; their conditions need not be identical. Identical values can stand only once.

How the values were obtained:
[1] = target: T1, full-length ALPK1 (Homo sapiens, UniProt Q96QP1); experiment: Surface plasmon resonance (SPR); assay type: binding; conditions: with 500 nM ADP-L-heptose
T1 construct: recombinant full-length ALPK1 kinase purified from Sf9 cells; 3xFlag (C); made in house; host or cells: Sf9 insect cells (baculovirus, pFAST-BAC)
T1 sequence (Q96QP1 whole entry): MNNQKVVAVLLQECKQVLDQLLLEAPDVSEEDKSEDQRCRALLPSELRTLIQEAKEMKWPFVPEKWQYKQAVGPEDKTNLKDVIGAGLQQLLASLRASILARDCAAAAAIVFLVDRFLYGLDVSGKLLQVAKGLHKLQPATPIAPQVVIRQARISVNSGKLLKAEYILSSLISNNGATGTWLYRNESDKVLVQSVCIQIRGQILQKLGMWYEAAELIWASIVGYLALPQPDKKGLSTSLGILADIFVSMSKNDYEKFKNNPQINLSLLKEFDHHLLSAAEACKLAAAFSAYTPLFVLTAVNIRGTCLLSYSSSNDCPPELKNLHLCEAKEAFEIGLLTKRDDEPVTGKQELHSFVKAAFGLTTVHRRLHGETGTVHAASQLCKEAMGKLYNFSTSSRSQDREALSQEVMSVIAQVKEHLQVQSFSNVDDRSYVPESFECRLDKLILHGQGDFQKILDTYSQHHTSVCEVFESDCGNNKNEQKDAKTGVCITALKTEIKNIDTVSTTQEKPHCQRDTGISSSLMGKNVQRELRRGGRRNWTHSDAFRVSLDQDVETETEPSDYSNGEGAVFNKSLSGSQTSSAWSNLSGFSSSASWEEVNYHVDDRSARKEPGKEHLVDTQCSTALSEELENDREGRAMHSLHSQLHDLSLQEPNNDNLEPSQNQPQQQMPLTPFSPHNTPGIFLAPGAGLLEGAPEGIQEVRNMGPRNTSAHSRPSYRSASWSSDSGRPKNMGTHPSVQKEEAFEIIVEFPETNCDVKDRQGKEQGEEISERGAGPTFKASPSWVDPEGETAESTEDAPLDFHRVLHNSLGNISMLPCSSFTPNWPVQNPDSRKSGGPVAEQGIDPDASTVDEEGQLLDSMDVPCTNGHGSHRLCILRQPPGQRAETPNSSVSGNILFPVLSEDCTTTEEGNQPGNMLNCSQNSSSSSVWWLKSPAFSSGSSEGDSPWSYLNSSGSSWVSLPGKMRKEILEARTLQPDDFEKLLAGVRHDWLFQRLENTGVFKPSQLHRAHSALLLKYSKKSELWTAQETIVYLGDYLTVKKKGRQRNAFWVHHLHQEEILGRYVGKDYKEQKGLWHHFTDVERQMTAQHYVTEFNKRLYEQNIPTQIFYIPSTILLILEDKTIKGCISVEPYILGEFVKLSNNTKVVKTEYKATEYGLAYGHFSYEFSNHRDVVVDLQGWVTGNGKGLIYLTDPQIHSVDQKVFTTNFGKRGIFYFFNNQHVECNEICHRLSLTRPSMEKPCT
Experimental: SPR assays were conducted on a Biacore 8 K (Cytiva). […] For analyte testing, flow rates were maintained at 30 µL/min. […] The data collection rate was 10 Hz, and all data were double referenced and solvent corrected. Analysis was performed using Biacore Insight Evaluation software version 5. The 1:1 kinetic binding affinity models were used to fit the data, and all parameters were fitted globally.

[2] = target: T1, full-length ALPK1; experiment: Thermal shift assay (TSA); assay type: binding; conditions: for TSA Tm Increase: compound at 10 μM; for increase in melting temperature (Tm): pilot TSA screen / assay validation
Experimental: A small molecule library containing ~160,000 compounds (HTS Diversity V2) was prepared by WuXi AppTec (Shanghai, China) in 384 well thin-wall qPCR plates, with 20 nL of 10 mM compound preparations in each well. On each screening plate, 2 columns of wells were loaded with 20 nL of pure DMSO to leave spaces for negative controls (no compounds) and the positive control (AS-252424). […] The mixture was spun down at 1000 rpm for 1 min, then immediately applied to a protein melting reaction on a Roche LightCycler® 480 II Real-time PCR system, heating the mixture from 30 °C to 50 °C at the ramp rate of 0.02 °C/s while continuously acquiring the fluorescence signal. The melting temperature (Tm) of the ALPK1 protein with or without each compound was calculated using the Protein Thermal Shift™ Analysis Desktop Software v1.2 (Thermo Fisher Scientific). For positive control wells, 40 μM AS-252424 in 5 μl compound solvent was added manually and used as a positive control in the thermal shift screening.

[3] = system: HEK-293 cells transfected with GFP-TIFA; experiment: DF-006-induced TIFAsome formation; conditions: 1 μM DF-006 alone
Experimental: Curve fitting and IC50 value calculations were performed with GraphPad Prism 6.
HEK-293 cells were purchased from the Cell Bank of The Chinese Academy of Sciences and routinely cultured in DMEM/High-Glucose (Hyclone). For TIFAsome analyses, the coding sequence for the GFP-TIFA fusion protein was cloned into the pcDNA3.1 plasmid. […] Each condition was conducted in sextuplicate. Cells were fixed with 4% paraformaldehyde and stained with DAPI (Shanghai Zhenghuang, Shanghai, China; C1005). Fluorescent images were acquired using a Motic upright fluorescent microscope (PA53 BIO FS6).

[4] = target: T2, ALPK1 (Homo sapiens, UniProt Q96QP1); experiment: biochemical
T2 sequence (Q96QP1 whole entry): as above
Experimental: The 10 µL kinase reactions were allowed to proceed for 1.5 h at 27 °C. Kinase reactions were terminated by adding 10 µL of the HTRF KinEASE detection kit buffer (Cisbio, Bedford, MA, USA; 62SDBRDF) containing monoclonal anti-HA-Eu cryptate (Cisbio; 610HAKLB) and monoclonal Anti HA-d2 to each well. TIFA phosphorylation levels were monitored through the detection of oligomerization signals generated upon TIFAsome assembly. Both donor and acceptor antibodies recognize TIFA and will generate a TR-FRET signal when bound to the same TIFA oligomer formed upon TIFA phosphorylation. […] The TR-FRET signals were calculated as the ratio of the acceptor and donor emission signals with the formula below:
ALPK1 kinase activity was calculated as follows: % Activity = 100% × (TR-FRET signal of test compound - mean TR-FRET signal of no ATP 1% DMSO control) / (mean TR-FRET signal of 1% DMSO control – mean TR-FRET signal of no ATP 1% DMSO control).
In multi-dose assays, compound activity was calculated via logarithmic interpolation. Concentration-response curves were fitted with a four-parameter logistic nonlinear regression model and the IC50 values for these compounds were calculated in GraphPad Prism 6.

[5] = target: T2, ALPK1; experiment: Western blotting-based in vitro kinase assay; assay type: biochemical; conditions: 20 µM
Experimental: Compounds were tested at a single final concentration of 20 μM in an in vitro kinase assay including 30 nM recombinant ALPK1 (purified from 293-F cells stimulated with 4% s.t. lysate 4 h before cell lysis) and 1.6 μM His-tagged TIFA in a 20 µl volume. […] An in vitro kinase reaction was conducted at 27 °C for 40 min in the following buffer: 20 mM HEPES pH 7.0, 1 mM TCEP, 10 mM MgCl2, 0.1 mM Na3VO4, 0.6 μM BSA, 5% DMSO and 25 μM ATP. […] After these in vitro kinase reactions, the kinase-substrate mix was fractionated by electrophoresis on denaturing SDS-PAGE gels and transferred to Immobilon-P PVDF membranes (Millipore, MA, USA). Membranes were blocked with 5% milk in TBS with 0.1% Triton-X100. Phosphorylated TIFA were detected by incubating the membrane with an anti-phospho-threonine (#9386, Cell Signaling Technology, Danvers, MA, USA) antibody. […]
compounds used in the Western blotting to measure the ability of compounds to inhibit the ALPK1-mediated phosphorylation of TIFA. (b) Example of the biochemical approach to validate hits from the thermal shift assay screen. ALPK1 binding compounds were tested in triplicate in an in vitro kinase assay at a final concentration of 20 µM, and the inhibitory effect was evaluated by comparing the phosphorylated TIFA level to that for the no compound control after the kinase reaction by Western blotting.
Phosphorylated TIFA was detected using an anti-phospho-theronine antibody. ALPK1 binders fell into three categories: inhibitors (e.g. WXHTS0017849, WXHTS WXHTS0037341), activators (e.g.
WXHTS0086594), and those with no effect (e.g. WXHTS0035788). […]

[6] = system: ROSAH patients; conditions: ROSAH patients ref 3; cited from earlier work

Molecule | Kd [1] [µM] | TSA Tm Increase [2] [°C] | effect on ALPK1-mediated TIFA phosphorylation [5] | also measured
O=C1NC(=O)/C(=C/c2ccc(-c3ccc(F)cc3O)o2)S1 [AS-252424] | 1 | 3.4 |  | increase in melting temperature (Tm) [2]: 3.4 °C
Nc1ncnc2c1ncn2[C@@H]1O[C@H](COP(=O)(O)OP(=O)(O)OP(=O)(O)O)[C@@H](O)[C@H]1O [ATP] |  |  |  | increase in melting temperature (Tm) [2]: 1.1 °C
CC(=O)OCC(F)C1OC(OP(=O)(O)OP(O)(=S)OCC2OC(n3cnc4c(N)ncnc43)C(O)C2O)C(OC(C)=O)C(OC(C)=O)C1OC(C)=O [DF-006, D-glycero-D-manno-6-fluoro-2,3,4,7-Ac-heptose-1β-S-ADP, reference compound] |  |  |  | Cells with TIFAsomes /GFP positive cells (%) [3]: 50.51% and 61.9% and 51.29% and 50.95% and 60.98%
CC1=NN(c2ccc(C)c(C)c2)C(=O)/C1=N\Nc1cccc(-c2cccc(C(=O)O)c2)c1O [Eltrombopag] | 10 | 3.6 | inhibit ALPK1 activity | IC50 [4]: 7.6 µM
O=C(O)c1cccnc1Nc1cccc(C(F)(F)F)c1 [Niflumic acid] | 7 | 1.8 |  | 
CO[C@@H]1[C@@H](OC(N)=O)[C@@H](O)[C@H](Oc2ccc3c(O)c(NC(=O)c4ccc(O)c(CC=C(C)C)c4)c(=O)oc3c2C)OC1(C)C [Novobiocin] |  | 1.4 |  | 
O=C(O)c1cc(/N=N/c2ccc(S(=O)(=O)Nc3ccccn3)cc2)ccc1O [Sulfasalazine] | 281 | 2.0 |  | 
Brc1c(Br)c(Br)c2n[nH]nc2c1Br [Tbb] | 265 | 3.4 |  | 
Cc1ccc(C(=O)c2cc(O)c(O)c([N+](=O)[O-])c2)cc1 [Tolcapone] | 97 | 2.2 | inhibit ALPK1 activity | 
Nc1c(-c2ccncc2)sc2nc(-c3cccs3)ccc12 [WXHTS0017849] |  |  | inhibitors | 
CC(=O)Oc1ccccc1-c1cccc(Cn2cccc(C(=O)Nc3ccc(-c4ccccc4)cc3)c2=O)c1 [WXHTS0035788] |  |  | no effect | 
Nc1nc(C2(c3ccccc3)CCCC2)cs1 [WXHTS0037341] |  |  | inhibitors | 
Cc1ccc(NC(=O)NCC(O)c2ccc(F)cc2F)cc1Cl (stereo not drawn) [WXHTS0086594] |  |  | activators | 
tocilizumab: anti-IL-6 drug given off-label to ROSAH patients |  |  |  | intraocular inflammation [6]: improved intraocular inflammation (two of two patients)
